# Measurements from patent publication US10035790B2, “RORγ modulators” (BRISTOL-MYERS SQUIBB COMPANY, priority 2012, dated 2018).
# pIC50: −log10 of the molar value.
# Target: T1, ligand binding domain of human RORγ (A262-S507) (Homo sapiens, UniProt P51449)
# T1 construct: made in house; host or cells: E. coli
# T1 sequence (P51449 262-507): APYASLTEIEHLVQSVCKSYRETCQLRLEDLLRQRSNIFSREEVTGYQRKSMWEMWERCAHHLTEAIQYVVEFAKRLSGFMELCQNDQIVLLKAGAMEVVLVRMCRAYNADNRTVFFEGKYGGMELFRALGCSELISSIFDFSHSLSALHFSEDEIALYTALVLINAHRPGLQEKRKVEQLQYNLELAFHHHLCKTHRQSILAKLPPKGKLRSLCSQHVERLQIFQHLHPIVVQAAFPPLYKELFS
# Test: General RORγ SPA binding assay (competition with [3H]25-hydroxycholesterol)
# Settings: RORγ SPA binding assay, inhibition of [3H]25-hydroxycholesterol binding; read-out: IC50
# Method in brief: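 Scintillation counts from copper His-tag SPA beads (4 mg/mL, 30 min) gave percent inhibition of radioligand binding, from which IC50 values are derived. The E. coli-expressed His-tagged domain (50 nM) is first exposed to compound for 15 min at room temperature in PBS containing 0.5% fatty acid free BSA.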
row,SMILES,pIC50
1,"C/C(=N\Oc1cccc(OC(F)(F)F)c1)c1cnc(C)nc1C1CCN(C(=O)Cc2c(F)cccc2F)CC1 [Compound B7, (E)-2-(2,6-difluorophenyl)-1-(4-(2-methyl-5-(1-((3-(trifluoromethoxy)phenoxy)imino)ethyl)pyrimidin-4-yl)piperidin-1-yl)ethanone]",7.97
2,"Cc1ncc(C(C)(O)Cc2cccc(C(F)(F)F)n2)c(C2CCN(C(=O)Nc3c(F)cccc3F)CC2)n1 (stereo not shown) [Compound D47, N-(2,6-Difluorophenyl)-4-(5-{1-hydroxy-1-methyl-2-[6-(trifluoromethyl)pyridin-2-yl]ethyl}-2-methylpyrimidin-4-yl)piperidine-1-carboxamide]",7.28
3,"Cc1ncc(C(C)(O)CNc2cccc(C(F)(F)F)n2)c(C2CCN(C(=O)Cc3c(F)cccc3F)CC2)n1 (stereo not shown) [Compound D2, 2-(2,6-difluorophenyl)-1-(4-(5-(2-hydroxy-1-((6-(trifluoromethyl)pyridin-2-yl)amino)propan-2-yl)-2-methylpyrimidin-4-yl)piperidin-1-yl)ethanone]",8.41
4,"Cc1cc(C)cc(CNC(C)c2cnc(C)nc2C2CCN(C(=O)Cc3c(F)cccc3F)CC2)c1 (stereo not shown) [Compound F9, 2-(2,6-Difluorophenyl)-1-(4-(5-(1-(3,5-dimethylbenzylamino)ethyl)-2-methylpyrimidin-4-yl)piperidin-1-yl)ethanone]",7.52
5,"Cc1nc(C)c(-c2nnc(-c3ccc(Cl)nc3)o2)c(C2CCN(C(=O)Cc3c(F)cccc3F)CC2)n1 [Compound C23, 1-(4-(5-(5-(6-chloropyridin-3-yl)-1,3,4-oxadiazol-2-yl)-2,6-dimethylpyrimidin-4-yl)piperidin-1-yl)-2-(2,6-difluorophenyl)ethanone]",5.28
6,"Cc1cc(C)cc(CNC(=O)c2cnc(C)nc2C2CCN(C(=O)Cc3cc(F)ccc3F)CC2)c1 [Compound A14, 4-(1-(2-(2,5-difluorophenyl)acetyl)piperidin-4-yl)-N-(3,5-dimethylbenzyl)-2-methylpyrimidine-5-carboxamide]",7.18
7,"Cc1ncc(C(C)(O)CNc2ccnc(C(F)(F)F)n2)c(C2CCN(C(=O)Nc3c(F)cccc3C(F)(F)F)CC2)n1 (stereo not shown) [Compound D18, N-[2-Fluoro-6-(trifluoromethyl)phenyl]-4-[5-(1-hydroxy-1-methyl-2-{[2-(trifluoromethyl)pyrimidin-4-yl]amino}ethyl)-2-methylpyrimidin-4-yl]piperidine-1-carboxamide]",6.95
8,Cc1cc(C)cc(CNC(=O)c2cnc(C)nc2C2CCN(C(=O)Cc3c(F)cccc3F)CC2)c1 [Compound A1],8.33
9,"Cc1ncc(C(=O)NCc2cc(C(F)(F)F)ccn2)c(C2CCN(C(=O)Cc3c(F)cccc3F)CC2)n1 [Compound A66, 4-(1-(2-(2,6-difluorophenyl)acetyl)piperidin-4-yl)-2-methyl-N-((4-(trifluoromethyl)pyridin-2-yl)methyl)pyrimidine-5-carboxamide]",7.14
10,"Nc1ncc(C(N)COc2cccc(C(F)(F)F)n2)c(C2CCN(C(=O)Nc3c(F)cccc3F)CC2)n1 (stereo not shown) [Compound N24, 4-[2-Amino-5-(1-amino-2-{[6-(trifluoromethyl)pyridin-2-yl]oxy}ethyl)pyrimidin-4-yl]-N-(2,6-difluorophenyl)piperidine-1-carboxamide]",8.03
11,"C/C(=N\Oc1cccc(C(F)(F)F)c1)c1cnc(C)nc1C1CCN(C(=O)Nc2c(F)cccc2C(F)(F)F)CC1 [Compound B45, N-[2-fluoro-6-(trifluoromethyl)phenyl]-4-{2-methyl-5-[(1E)-N-{[3-(trifluoromethyl)phenyl]oxy}ethanimidoyl]pyrimidin-4-yl}piperidine-1-carboxamide]",8.10
12,"Nc1ncc(C(O)COc2ccnc(C(F)(F)F)n2)c(C2CCN(C(=O)Oc3c(F)cccc3F)CC2)n1 (stereo not shown) [Compound N13, 2,6-Difluorophenyl 4-[2-amino-5-(1-hydroxy-2-{[2-(trifluoromethyl)pyrimidin-4-yl]oxy}ethyl)pyrimidin-4-yl]piperidine-1-carboxylate]",8.17

# The remaining molecules from weak to strong by pIC50, led by results:
row,pIC50,SMILES
1,5.34,"Cc1nc(C)c(-c2nnc(-c3ccnc(C(F)(F)F)n3)s2)c(C2CCN(C(=S)Cc3c(F)cccc3F)CC2)n1 [Compound C39, 4-{1-[2-(2,6-Difluorophenyl)ethanethioyl]piperidin-4-yl}-2,6-dimethyl-5-{5-[2-(trifluoromethyl)pyrimidin-4-yl]-1,3,4-thiadiazol-2-yl}pyrimidine]"
2,5.53,"Cc1cc(C)cc(CNC(=O)c2cnc(C)nc2C2CCN(C(=O)C(C)(C)c3ccccc3)CC2)c1 [Compound A35, N-(3,5-dimethylbenzyl)-2-methyl-4-(1-(2-methyl-2-phenylpropanoyl)piperidin-4-yl)pyrimidine-5-carboxamide]"
3,6.21,"Cc1nc(C)c(-c2nc(-c3cccc(Cl)c3)no2)c(C2CCN(C(=O)Cc3c(F)cccc3F)CC2)n1 [Compound C4, 1-(4-(5-(3-(3-chlorophenyl)-1,2,4-oxadiazol-5-yl)-2,6-dimethylpyrimidin-4-yl)piperidin-1-yl)-2-(2,6-difluorophenyl)ethanone]"
4,6.30,"Cc1nc(C)c(C(=O)NOc2cccc(Cl)c2)c(C2CCN(C(=O)Cc3c(F)cccc3F)CC2)n1 [Compound H5, N-(3-chlorophenoxy)-4-(1-(2-(2,6-difluorophenyl)acetyl)piperidin-4-yl)-2,6-dimethylpyrimidine-5-carboxamide]"
5,6.62,"Cc1ncc(C(=O)NCc2ccc(Cl)nc2)c(C2CCN(C(=O)Cc3c(F)cccc3F)CC2)n1 [Compound A71, N-((6-chloropyridin-3-yl)methyl)-4-(1-(2-(2,6-difluorophenyl)acetyl)piperidin-4-yl)-2-methylpyrimidine-5-carboxamide]"
6,6.92,"CC(=O)Nc1ncc(C(C)(O)COc2ccnc(C(F)(F)F)n2)c(C2CCN(C(=O)Nc3c(F)cccc3F)CC2)n1 (stereo not shown) [Compound D31, 4-[2-(Acetylamino)-5-(1-hydroxy-1-methyl-2-{[2-(trifluoromethyl)pyrimidin-4-yl]oxy}ethyl)pyrimidin-4-yl]-N-(2,6-difluorophenyl)piperidine-1-carboxamide]"
7,7.20,"Cc1ncc(C(=O)NCc2cccc(Cl)c2C)c(C2CCN(C(=O)Cc3c(F)cccc3F)CC2)n1 [Compound A63, N-(3-chloro-2-methylbenzyl)-4-(1-(2-(2,6-difluorophenyl)acetyl)piperidin-4-yl)-2-methylpyrimidine-5-carboxamide]"
8,7.32,"Cc1nc(C)c(-c2nnc(-c3ccnc(C(F)(F)F)n3)o2)c(C2CCN(C(=O)Nc3c(F)cccc3C(F)(F)F)CC2)n1 [Compound C40, 4-(2,6-Dimethyl-5-{5-[2-(trifluoromethyl)pyrimidin-4-yl]-1,3,4-oxadiazol-2-yl}pyrimidin-4-yl)-N-[2-fluoro-6-(trifluoromethyl)phenyl]piperidine-1-carboxamide]"
9,7.36,"CSc1ncc(C(=O)NCc2ccc(Cl)c(Cl)c2)c(C2CCN(C(=O)Cc3c(F)cccc3F)CC2)n1 [Compound A85, N-(3,4-dichlorobenzyl)-4-(1-(2-(2,6-difluorophenyl)acetyl)piperidin-4-yl)-2-(methylthio)pyrimidine-5-carboxamide]"
10,7.36,"Cc1ncc(C(=O)NCc2ccc(Cl)cc2)c(C2CCN(C(=O)Cc3c(F)cccc3F)CC2)n1 [Compound A62, N-(4-chlorobenzyl)-4-(1-(2-(2,6-difluorophenyl)acetyl)piperidin-4-yl)-2-methylpyrimidine-5-carboxamide]"
11,7.43,"CC(=O)NCC(O)(COc1cccc(C(F)(F)F)n1)c1cnc(C)nc1C1CCN(C(=O)Nc2c(F)cccc2F)CC1 (stereo not shown) [Compound N37, 4-{5-[2-(Acetylamino)-1-hydroxy-1-({[6-(trifluoromethyl)pyridin-2-yl]oxy}methyl)ethyl]-2-methylpyrimidin-4-yl}-N-(2,6-difluorophenyl)piperidine-1-carboxamide]"
12,7.53,"Cc1cc(C)cc(CNC(=O)c2cnc(C)nc2C2CCN(C(=O)c3c(F)cccc3Cl)CC2)c1 [Compound A8, 4-(1-(2-chloro-6-fluorobenzoyl)piperidin-4-yl)-N-(3,5-dimethylbenzyl)-2-methylpyrimidine-5-carboxamide]"
13,7.78,"Cc1cc(C)cc(COC(C)(CO)c2cnc(C)nc2C2CCN(C(=O)Cc3c(F)cccc3F)CC2)c1 (stereo not shown) [Compound E4, 2-(2,6-difluorophenyl)-1-(4-(5-(2-((3,5-dimethylbenzyl)oxy)-1-hydroxypropan-2-yl)-2-methylpyrimidin-4-yl)piperidin-1-yl)ethanone]"
14,7.88,"Cc1ncc(C(C)(F)COc2cccc(C(F)(F)F)n2)c(C2CCN(C(=O)Nc3c(F)cccc3C(F)(F)F)CC2)n1 (stereo not shown) [Compound E13, 4-[5-(1-Fluoro-1-methyl-2-{[6-(trifluoromethyl)pyridin-2-yl]oxy}ethyl)-2-methylpyrimidin-4-yl]-N-[2-fluoro-6-(trifluoromethyl)phenyl]piperidine-1-carboxamide]"
15,8.08,"Cc1ncc(/C(CO)=N/Oc2ccnc(C(F)(F)F)c2)c(C2CCN(C(=O)Cc3c(F)cccc3F)CC2)n1 [Compound B23, (1Z)-1-(4-{1-[(2,6-Difluorophenyl)acetyl]piperidin-4-yl}-2-methylpyrimidin-5-yl)-2-hydroxyethanone O-[2-(trifluoromethyl)pyridin-4-yl]oxime]"
16,8.52,"Cc1cc(C)cc(CNC(=O)c2cnc(C)nc2C2C=CN(C(=O)Cc3c(F)cccc3F)CC2)c1 (stereo not shown) [Compound A114, 4-(1-(2-(2,6-Difluorophenyl)acetyl)-1,2,3,4-tetrahydropyridin-4-yl)-N-(3,5-dimethylbenzyl)-2-methylpyrimidine-5-carboxamide]"
